Source: patent US4923963A, “Bradykinin antagonist peptides” (Nova Technology Limited Partnership, priority 1987, dated 1990)
Square brackets hold non-standard residues; d marks the D form. Ends that are not written are not given here. Peptide text beside a SMILES is read from it. d2Nal = N[C@H](Cc1ccc2ccccc2c1)C(=O)O; Hyp = O=C(O)[C@@H]1C[C@@H](O)CN1; 2Thi = N[C@@H](Cc1cccs1)C(=O)O; d2Thi = N[C@H](Cc1cccs1)C(=O)O

Tests used:
[1] = tested on: isolated guinea pig ileum; type: cell-based; parameters: pA2 /GPI: activity class: scale not given here; settings: for pA2 /GPI: activity class / pA2 /GPI: agonist potency as percent of BK potency: isolated guinea pig ileum; for pA2 /GPI: activity class: not quantitated
Protocol: The bradykinin antagonists were assayed on isolated rat uterus in natural or induced estrus and on guinea pig ileum, according to the commonly accepted assay methods for bradykinin and related kinins as described by Trautschold (Handbook of Expt. Pharmacol. Vol 25, Springer Verlag, pp. 53-55, 1970) for inhibition of the myotropic activity of bradykinin. The inhibition potencies, as determined according to the commonly accepted manner described by Schild for antagonists of biologically active compounds (Br. J. Pharmacol. 2:189, 1947), and expressed as pA2 values are determined on isolated rat uterus (RUT) and isolated guinea pig ileum (GPI). In the assays, a dose-response curve is determined for the reference substance bradykinin. The dose of bradykinin which produced a half maximal contraction of tissue is the ED50 dose. An amount of bradykinin equivalent to twice the ED50 dose is administered to the tissue 30 seconds after the start of incubation of the tissue with a dose of antagonist. Doses of antagonist are increased in this protocol until pre-incubation with a dose of antagonist reduces the contraction in response to the double ED50 dose of bradykinin to response of a single ED50 dose of bradykinin. The pA2 value represents the negative logarithm of the molar concentration of antagonist necessary to reduce the response of a double ED50 dose of bradykinin to that of an ED50 dose. One unit of pA2 value represents an order of magnitude change in potency. For comparison, the negative log of the dose of BK, the dose which causes half maximal contraction of the tissues, is commonly known as the pD2 value. The pD2 value for bradykinin is 7.9 on the rat uterus and 7.4 on the guinea pig ileum.

pulmonary circulation = settings: anesthetized rat; cited from earlier work
isolated rat uterus = type: cell-based; settings: for pA2 /RUT: activity class / pA2 /RUT: agonist potency as percent of BK potency: isolated rat uterus; for pA2 /RUT: activity class: not quantitated
Summary of the method: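 Antagonism of bradykinin-induced contraction in isolated rat uterus (natural or induced estrus) and guinea pig ileum. Antagonist preincubated 30 s before a double-ED50 bradykinin dose, with the dose raised until the response fell to that of a single ED50. pA2 is the negative log molar antagonist concentration achieving this (Schild method).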

[2] = in vivo; cited from earlier work
rat blood pressure = assay: effects on blood pressure in the anesthetized rat (RBP), intraaortic and intravenous bolus; type: in vivo; parameters: RBP-IA: activity class / RBP-IV: activity class: scale not given here; settings: for RBP-IA: activity class / RBP-IV: activity class / RBP-IA: agonist potency as percent of BK potency / RBP-IV: agonist potency as percent of BK potency: rat blood pressure; for RBP-IA: activity class / RBP-IA: agonist potency as percent of BK potency: intraaortic bolus; for RBP-IV: activity class / RBP-IV: agonist potency as percent of BK potency: intravenous bolus; for % DESTR (metabolic breakdown of BK-like agonists in RBP assay): relative to BK = 100%
Protocol: The in vivo effects of bradykinin antagonists on blood pressure in the anesthetized rat are determined according to the assay described by Roblero, Ryan and Stewart (Res. Commun. Pathol. Pharmacol. 6:207, 1973). The antagonists also produce inhibition of the bradykinin response when injected as a bolus admixture of bradykinin plus antagonist by either the ia or iv route of administration.

| Compound | pA2 /GPI: activity class [1] | RBP-IA: activity class (rat blood pressure) | RBP-IV: activity class (rat blood pressure) | pA2 /RUT: activity class (isolated rat uterus) | pA2 /GPI: agonist potency as percent of BK potency [1] | RBP-IA: agonist potency as percent of BK potency (rat blood pressure) | RBP-IV: agonist potency as percent of BK potency (rat blood pressure) | % DESTR (metabolic breakdown of BK-like agonists in RBP assay) (rat blood pressure) | pA2 /RUT: agonist potency as percent of BK potency (isolated rat uterus) | other results |
| --- | --- | --- | --- | --- | --- | --- | --- | --- | --- | --- |
| RPPGFSPFR [bradykinin, Arg-Pro-Pro-Gly-Phe-Ser-Pro-Phe-Arg] |  |  |  |  |  |  |  |  |  | pD2 value (negative log of dose causing half maximal contraction) ([1]; guinea pig ileum): 7.4; destruction on a single passage through the pulmonary circulation (pulmonary circulation): 98-99%; pD2 value (negative log of dose causing half maximal contraction) (isolated rat uterus; rat uterus): 7.9; half life in the systemic circulation [2]: less than 30 seconds |
| N=C(N)NCCC[C@H](NC(=O)[C@H](Cc1ccccc1)NC(=O)[C@@H](Cc1cccs1)NC(=O)[C@H](CO)NC(=O)[C@H](Cc1ccccc1)NC(=O)CNC(=O)[C@@H]1CCCN1C(=O)[C@@H]1CCCN1C(=O)[C@H](N)Cc1cccs1)C(=O)O [Example 33, DThi-Pro-Pro-Gly-Phe-Ser-DThi-Phe-Arg] (H-[d2Thi]PPGFS[d2Thi]FR-OH) | 0 | 0 | 0 | 0 |  |  |  |  |  |  |
| CC(C)[C@@H](N)C(=O)N1CCC[C@H]1C(=O)N1C[C@H](O)C[C@H]1C(=O)NCC(=O)N[C@@H](Cc1ccccc1)C(=O)N[C@@H](CO)C(=O)N[C@H](Cc1ccccc1)C(=O)N[C@@H](Cc1ccccc1)C(=O)N[C@@H](CCCNC(=N)N)C(=O)O [Example 15, DVal-Pro-Hyp-Gly-Phe-Ser-DPhe-Phe-Arg] (H-[dV]P[Hyp]GFS[dF]FR-OH) | 0 | 0 | 0 | 0 |  |  |  |  |  |  |
| CC[C@H](C)[C@H](NC(=O)[C@H](CCCNC(=N)N)NC(=O)[C@H](Cc1ccccc1)NC(=O)[C@@H]1CCCN1C(=O)[C@H](CO)NC(=O)[C@H](Cc1ccccc1)NC(=O)CNC(=O)[C@@H]1CCCN1C(=O)[C@@H]1CCCN1C(=O)[C@H](CCCNC(=N)N)NC(=O)[C@H](CCCCN)NC(=O)[C@@H](N)CCCCN)C(=O)N[C@@H](Cc1ccc(O)cc1)C(=O)O [Example 61, Lys-Lys-Arg-Pro-Pro-Gly-Phe-Ser-Pro-Phe-Arg-Ile-Tyr] |  |  |  |  | 21% | 9% | 497% | 0% | 18% |  |
| CC[C@H](C)[C@H](NC(=O)[C@H](CCCNC(=N)N)NC(=O)[C@H](Cc1ccccc1)NC(=O)[C@@H]1CCCN1C(=O)[C@H](CO)NC(=O)[C@H](Cc1ccccc1)NC(=O)CNC(=O)[C@@H]1CCCN1C(=O)[C@@H]1CCCN1C(=O)[C@H](CCCNC(=N)N)NC(=O)[C@H](N)CCCNC(=N)N)C(=O)N[C@@H](Cc1ccc(O)cc1)C(=O)O [Example 60, DArg-Arg-Pro-Pro-Gly-Phe-Ser-Pro-Phe-Arg-Ile-Tyr] (H-[dR]RPPGFSPFRIY-OH) |  |  |  |  | 34% | 12% | 189% | 47% | 25% |  |
| N=C(N)NCCC[C@@H](N)C(=O)N[C@H](Cc1ccc2ccccc2c1)C(=O)N1CCC[C@H]1C(=O)N1CCC[C@H]1C(=O)NCC(=O)N[C@@H](Cc1ccccc1)C(=O)N[C@@H](CO)C(=O)N[C@H](Cc1cccs1)C(=O)N[C@@H](Cc1ccccc1)C(=O)N[C@@H](CCCNC(=N)N)C(=O)O [Example 39, DArg-DNal-Pro-Pro-Gly-Phe-Ser-DThi-Phe-Arg] (H-[dR][d2Nal]PPGFS[d2Thi]FR-OH) | 0 | 0 | 0 |  |  |  |  |  |  | pA2 /RUT (antagonist potency) (isolated rat uterus): 5.6 |
| CC(=O)N[C@@H](CCCNC(=N)N)C(=O)N1CCC[C@H]1C(=O)N1CCC[C@H]1C(=O)NCC(=O)N[C@@H](Cc1cccs1)C(=O)N[C@@H](CO)C(=O)N[C@H](Cc1ccccc1)C(=O)N[C@@H](Cc1cccs1)C(=O)N[C@H](CCCNC(=N)N)C(=O)O [Example 42, Ac-Arg-Pro-Pro-Gly-Thi-Ser-DPhe^7 -Thi-DArg] (Ac-RPPG[2Thi]S[dF][2Thi][dR]-OH) | 0 | 0 | 0 | 0 |  |  |  |  |  |  |
| [dK]KRPPGFSPRIY [Example 62] |  |  |  |  | 1% | 5% | 165% | 0% | 5% |  |
| N=C(N)NCCC[C@H](NC(=O)[C@H](Cc1ccccc1)NC(=O)[C@@H](Cc1ccccc1)NC(=O)[C@H](CO)NC(=O)[C@H](Cc1ccccc1)NC(=O)CNC(=O)[C@@H]1C[C@@H](O)CN1C(=O)[C@@H]1CCCN1C(=O)[C@H](N)Cc1ccc2ccccc2c1)C(=O)O [Example 30, DNa]-Pro-Hyp-Gly-Phe-Ser-DPhe-Phe-Arg] (H-[d2Nal]P[Hyp]GFS[dF]FR-OH) |  | 0 | 0 | 0 | 0.1% |  |  |  |  |  |
| N=C(N)NCCC[C@@H](N)C(=O)N[C@H](Cc1cccs1)C(=O)N1CCC[C@H]1C(=O)N1CCC[C@H]1C(=O)NCC(=O)N[C@@H](Cc1ccccc1)C(=O)N[C@@H](CO)C(=O)N[C@H](Cc1cccs1)C(=O)N[C@@H](Cc1ccccc1)C(=O)N[C@@H](CCCNC(=N)N)C(=O)O [Example 35, DArg-DThi-Pro-Pro-Gly-Phe-Ser-DThi-Phe-Arg] (H-[dR][d2Thi]PPGFS[d2Thi]FR-OH) | 0 | 0 | 0 | 0 |  |  |  |  |  |  |
